Reference: patent publication US20070031482A1, “PDT treatment method for cellulites and cosmetic use” (CeramOptec Industries, Ind., priority 2005, published 2007)

Experiments:
[1] = without light activation; cited from earlier work
[2] = cited from earlier work
cellulites = experiment: PDT treatment of cellulites with Temoporfin solution by Mesotherapy and diode laser (Example 1); format: in vivo, patient; details: 1 session per area, followed by appropriate physiotherapy / complementary session (ultrasound, lymph-drainage, electro-stimulation); evaluation after 30 days
Experimental: A patient having cellulites is treated with Temoporfin in several sessions. The variables in this treatment program are as follows: • 1.—A determination of the grade of cellulites in the patient. • 2.—A determination of the dose and concentration of Temoporfin and to confirm that it produces an improvement on the cellulites, and to further insure that it is possible to apply it directly by Mesotherapy without the need of systemic introduction. • 3.—A determination as to the potency of Temoporfin based on the time of application to the time of laser application; and • 4.—A determination as to accompanying treatments. In this EXAMPLE, the patient is administered the Temoporfin solution as follows: In all sequences, the treatment consists 1 session only per area to be treated, and, if necessary, it is repeated in 30 days. In general, it was observed that only 1 session followed by appropriate physiotherapy, a complementary session (like ultrasound, lymph-drainage, isotonic and isometric electro-stimulation), was usually sufficient in more than 80% of the patients. If it was necessary to repeat it, an evaluation is done after 30 days. Table 2 presents further information as to the stage of cellulite, concentration of mTHPC (Temoporfin), dose, surface area being treated; strength, power level and time of laser radiation application. [table] […]

Oc1cccc(-c2c3nc(c(-c4cccc(O)c4)c4ccc([nH]4)c(-c4cccc(O)c4)c4nc(c(-c5cccc(O)c5)c5ccc2[nH]5)CC4)C=C3)c1 [Temoporfin]
effect in the dark [1]: totally innocuous and inactive in the dark
solubility in triglycerides [2]: not soluble in triglycerides
patients in whom only 1 session was usually sufficient (cellulites): more than 80 % of the patients
